This note sets out measurements from US20090123376A1, “THERAPEUTIC AGENTS WITH DECREASED TOXICITY” (priority 2004, published 2009).

Data set [1] is described as follows: Toxicity of IgG-MMAE, F(ab')2-MMAE conjugates and free MMAE in rats (Example 3). It is filed as in vivo, Female Spraque-Dawley (SD) rats. The procedure: Female Spraque-Dawley (SD) rats weighing between 75-80 grams (Charles River Laboratories, Hollister, Calif.) were used in the following studies to compare the toxicity of free MMAE, Fab-MMAE and F(ab′)2-MMAE conjugates.
The body surface area was calculated as follows: [{(body weight in grams to 0.667 power)×11.8}/10000]. (Guidance for Industry and Reviewers. Estimating the Safety Starting Dose in Clinical Trials for Therapeutics in Adult Healthy Volunteers. U.S. Department of Health and Human Services Food and Drug Administration, Center for Drug Evaluation and Research (CDER), Center for Biologics Evaluation and research (CBER), December 2002).
General clinical observations were performed daily. Morbidity and mortality checks were performed twice daily (AM and PM). The body weights of the animals were measured pre-dose on Study Day 1 and daily thereafter. Whole blood was collected into EDTA containing tubes for hematology parameters (e.g., mean serum AST levels, ALT levels, GGT levels and billirubin levels) and differential cell counts (e.g., mean white blood cell counts and platelet counts). Whole blood was collected into serum separator tubes for clinical chemistry parameters. Blood samples were collected pre-dose on Study Day-4, on Study Day 3 and on Day 5 at necropsy. Whole blood was also collected into lithium heparin containing tubes at necropsy and the plasma was frozen at −70° C. for later analysis. The following tissues were collected at necropsy: liver, kidneys, heart, thymus, spleen, brain, sternum and sections of the GI tract, including stomach, large and small intestine. At necropsy, only spleen and thymus were weighed. All statistical analyses were done on Day 5 body weights using a One Way ANOVA, Tukey's test, (SigmaStat 2.03 Software).

The test system of data set [2] is MMTV-HER2 transgenic mammary tumors (Fo5). Particulars: established MMTV-HER2 transgenic mammary tumors (Fo5).
Protocol: Log Cell Kill analyses based on tumor doubling times were conducted. The Log Cell Kill analysis uses a mathematical computation of tumor growth delay based on the time it takes for tumors to double in size after treatment begins compared to controls.
[3] abbreviates: 2105 μg MMAE/m2, day 3 (Herceptin-vc-MMAE days 3 and 5).
The mark [4] stands for this setting: 2105 μg MMAE/m2 single iv bolus.

Non-standard residues stand in square brackets, D forms with d. Residues, ends and D or L forms follow the SMILES beside them. *: point of attachment. Dolaproine = CO[C@@H]([C@@H]1CCCN1)[C@@H](C)C(=O)O; Dil = CC[C@H](C)[C@H](NC)[C@@H](CC(=O)O)OC; X1 = C[C@@H](N*)[C@@H](O)c1ccccc1; NMeV = CN[C@H](C(=O)O)C(C)C

`CC[C@H](C)[C@@H]([C@@H](CC(=O)N1CCC[C@H]1[C@H](OC)[C@@H](C)C(=O)N[C@H](C)[C@@H](O)c1ccccc1)OC)N(C)C(=O)[C@@H](NC(=O)[C@@H](NC)C(C)C)C(C)C` [free MMAE, monomethylauristatin] (H-[NMeV]V[Dil][Dolaproine]-X1): the “morphologic changes (histology)” value in data set [1] (2105 μg MMAE/m2) is “most severe”. Moreover, in data set [1] (setting [3]), the “liver associated serum enzymes / liver function tests” value was “highest elevations in liver associated serum enzymes ALT, AST and GGT”; the “platelet and white blood cell counts” value is “lowest platelet and white blood cell counts”. In data set [1] (setting [4]), the “body weight lost by Day 3 compared with Day 1 weights” value came to 12 grams and the “weight loss, comparison between groups” value is recorded as “comparable weight loss”. Besides, the clinical observations entry in data set [1] (2105 μg MMAE/m2 single iv bolus, Study Day 3) is on record as “moribund”.

On to Herceptin®, for which the “response of the Fo5 tumor line” value in data set [2] is recorded as “non-responsive”.
